From PubChem BioAssay AID1963959 (Molecular Pharmacology Branch, DTP, NCI, 2024)
Where “and” joins values, the source holds several entries; their conditions need not be identical. Equal values may be shown once.

Tested on: T-47D spheroids with HUVEC/MSC, viability
Test: Anticancer human tumor T-47D cell line growth inhibition [PI3K];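 note: spheroids exposed to agents for seven days before reading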;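 for viability, T/C: percent of DMSO vehicle control luminescence so 100% = untreated growth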
Settings: for viability, T/C: stronger effect = lower value; active = viability on the fitted dose curve at most 10% of control; inactive = the rest
How it was run: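 Complex 3D spheroids (cancer cells + endothelial HUVEC + mesenchymal stem cells); drug pairs of targeted agent x inavolisib/alpelisib/duvelisib/copanlisib; half-log series from ~Cmax, max 10 microM if Cmax unknown; endpoint viability.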

[1] = curve of first compound, second compound 0.0316 µM
[2] = curve of first compound, second compound 0.1 µM
[3] = curve of first compound, second compound 0.316 µM
[4] = curve of first compound, second compound 1 µM
[5] = curve of first compound, second compound 3.16 µM
[6] = curve of first compound, second compound 10 µM
[7] = second compound 0.0316 µM, first compound 0.0316 µM
[8] = second compound 0.0316 µM, first compound 0.1 µM
[9] = second compound 0.0316 µM, first compound 0.316 µM
[10] = second compound 0.0316 µM, first compound 1 µM
[11] = second compound 0.0316 µM, first compound 3.16 µM
[12] = second compound 0.0316 µM, first compound 10 µM
[13] = second compound 0.1 µM, first compound 0.0316 µM
[14] = second compound 0.1 µM, first compound 0.1 µM
[15] = second compound 0.1 µM, first compound 0.316 µM
[16] = second compound 0.1 µM, first compound 1 µM
[17] = second compound 0.1 µM, first compound 3.16 µM
[18] = second compound 0.1 µM, first compound 10 µM
[19] = second compound 0.316 µM, first compound 0.0316 µM
[20] = second compound 0.316 µM, first compound 0.1 µM
[21] = second compound 0.316 µM, first compound 0.316 µM
[22] = second compound 0.316 µM, first compound 1 µM
[23] = second compound 0.316 µM, first compound 3.16 µM
[24] = second compound 0.316 µM, first compound 10 µM
[25] = second compound 1 µM, first compound 0.0316 µM
[26] = second compound 1 µM, first compound 0.1 µM
[27] = second compound 1 µM, first compound 0.316 µM
[28] = second compound 1 µM, first compound 1 µM
[29] = second compound 1 µM, first compound 3.16 µM
[30] = second compound 1 µM, first compound 10 µM
[31] = second compound 3.16 µM, first compound 0.0316 µM
[32] = second compound 3.16 µM, first compound 0.1 µM
[33] = second compound 3.16 µM, first compound 0.316 µM
[34] = second compound 3.16 µM, first compound 1 µM
[35] = second compound 3.16 µM, first compound 3.16 µM
[36] = second compound 3.16 µM, first compound 10 µM
[37] = second compound 10 µM, first compound 0.0316 µM
[38] = second compound 10 µM, first compound 0.1 µM
[39] = second compound 10 µM, first compound 0.316 µM
[40] = second compound 10 µM, first compound 1 µM
[41] = second compound 10 µM, first compound 3.16 µM
[42] = second compound 10 µM, first compound 10 µM
[43] = second compound 0.0316 µM, first compound 0.00316 µM
[44] = second compound 0.0316 µM, first compound 0.01 µM
[45] = second compound 0.1 µM, first compound 0.00316 µM
[46] = second compound 0.1 µM, first compound 0.01 µM
[47] = second compound 0.316 µM, first compound 0.00316 µM
[48] = second compound 0.316 µM, first compound 0.01 µM
[49] = second compound 1 µM, first compound 0.00316 µM
[50] = second compound 1 µM, first compound 0.01 µM

CCCS(=O)(=O)Nc1ccc(F)c(C(=O)c2c[nH]c3ncc(-c4ccc(Cl)cc4)cc23)c1F + Cc1nc(NC(=O)N2CCCC2C(N)=O)sc1-c1ccnc(C(C)(C)C(F)(F)F)c1
inactive: viability, T/C [7] 95.4% | viability, T/C [8] 92.7% | viability, T/C [9] 100% | viability, T/C [10] 94.4% | viability, T/C [11] 108% | viability, T/C [12] 46.1% | viability, T/C [13] 93.1% | viability, T/C [14] 92.5% | viability, T/C [15] 107% | viability, T/C [16] 91.4% | viability, T/C [17] 85.9% | viability, T/C [18] 41.7% | viability, T/C [19] 99.8% | viability, T/C [20] 93% | viability, T/C [21] 89.3% | viability, T/C [22] 90.5% | viability, T/C [23] 76% | viability, T/C [24] 41.7% | viability, T/C [25] 83.5% | viability, T/C [26] 82.3% | viability, T/C [27] 81.5% | viability, T/C [28] 78.3% | viability, T/C [29] 78.4% | viability, T/C [30] 39.7% | viability, T/C [31] 75.3% | viability, T/C [32] 76.9% | viability, T/C [33] 79% | viability, T/C [34] 81.5% | viability, T/C [35] 56% | viability, T/C [36] 35% | viability, T/C [37] 35.3% | viability, T/C [38] 40.7% | viability, T/C [39] 41.2% | viability, T/C [40] 37.8% | viability, T/C [41] 38.3% | viability, T/C [42] 32.8%
9.2 µM: IC50 [1]
4.41 µM: IC50 [5]
7.63 µM: IC50 [3]
8.1 µM: IC50 [2]
7.35 µM: IC50 [4]
< 0.0316 µM: IC50 [6]

CC(Cn1ccc(-c2ccc(C#N)c(Cl)c2)n1)NC(=O)c1cc(C(C)O)[nH]n1 (centres undefined) + CC(Nc1ncnc2nc[nH]c12)c1cc2cccc(Cl)c2c(=O)n1-c1ccccc1
> 10 µM: IC50 [1] | IC50 [2] | IC50 [3] | IC50 [4] | IC50 [5] | IC50 [6]
inactive: viability, T/C [7] 83.6% | viability, T/C [8] 76.1% | viability, T/C [9] 87.8% | viability, T/C [10] 90% | viability, T/C [11] 86.2% | viability, T/C [12] 51% | viability, T/C [13] 93.1% | viability, T/C [14] 80% | viability, T/C [15] 75.7% | viability, T/C [16] 82.3% | viability, T/C [17] 85.6% | viability, T/C [18] 54.9% | viability, T/C [19] 90.7% | viability, T/C [20] 107% | viability, T/C [21] 86.4% | viability, T/C [22] 87.5% | viability, T/C [23] 74.9% | viability, T/C [24] 62.1% | viability, T/C [25] 80.2% | viability, T/C [26] 77.4% | viability, T/C [27] 92.9% | viability, T/C [28] 80.9% | viability, T/C [29] 74.4% | viability, T/C [30] 64% | viability, T/C [31] 84.5% | viability, T/C [32] 86.5% | viability, T/C [33] 87.7% | viability, T/C [34] 85.7% | viability, T/C [35] 81.4% | viability, T/C [36] 52.4% | viability, T/C [37] 80.7% | viability, T/C [38] 84.3% | viability, T/C [39] 75.2% | viability, T/C [40] 80.1% | viability, T/C [41] 72.2% | viability, T/C [42] 56.4%

Cn1nccc1Nc1nccc(-c2ccn(C(CO)c3ccc(Cl)c(F)c3)c(=O)c2)n1 (centres undefined)
inactive: viability, T/C (compound 0.0316 µM) 103% [middle of 4 runs] | viability, T/C (compound 0.1 µM) 93.2% [middle of 4 runs] | viability, T/C (compound 0.316 µM) 105% [middle of 4 runs] | viability, T/C (compound 3.16 µM) 99.5% [middle of 4 runs] | viability, T/C (compound 10 µM) 82.5% and 92.7% and 101% (2×)
> 10 µM: IC50 (curve of compound)

CCN1CCN(Cc2ccc(Nc3ncc(F)c(-c4cc(F)c5nc(C)n(C(C)C)c5c4)n3)nc2)CC1 + CC(Nc1ncnc2nc[nH]c12)c1cc2cccc(Cl)c2c(=O)n1-c1ccccc1
inactive: viability, T/C [43] 107% | viability, T/C [44] 97.2% | viability, T/C [7] 91.7% | viability, T/C [8] 74.7% | viability, T/C [9] 95.7% | viability, T/C [10] 94.5% | viability, T/C [45] 114% | viability, T/C [46] 87.1% | viability, T/C [13] 81.8% | viability, T/C [14] 96% | viability, T/C [15] 88.5% | viability, T/C [16] 92.3% | viability, T/C [47] 103% | viability, T/C [48] 98.5% | viability, T/C [19] 82.6% | viability, T/C [20] 78.8% | viability, T/C [21] 93.6% | viability, T/C [22] 106% | viability, T/C [49] 112% | viability, T/C [50] 93.2% | viability, T/C [25] 91% | viability, T/C [26] 84.1% | viability, T/C [27] 89.7% | viability, T/C [28] 106% | viability, T/C (second compound 3.16 µM, first compound 0.00316 µM) 93.5% | viability, T/C (second compound 3.16 µM, first compound 0.01 µM) 80.9% | viability, T/C [31] 85.6% | viability, T/C [32] 77.2% | viability, T/C [33] 89.9% | viability, T/C [34] 85.9% | viability, T/C (second compound 10 µM, first compound 0.00316 µM) 77.7% | viability, T/C (second compound 10 µM, first compound 0.01 µM) 89.4% | viability, T/C [37] 82.2% | viability, T/C [38] 72.8% | viability, T/C [39] 71.9% | viability, T/C [40] 82.1%
> 1 µM: IC50 [1] | IC50 [2] | IC50 [3] | IC50 [4] | IC50 [5] | IC50 [6]

CC(C)n1nc(-c2ccc3oc(N)nc3c2)c2c(N)ncnc21 + COc1c(OCCCN2CCOCC2)ccc2c3n(c(=NC(=O)c4cnc(N)nc4)nc12)CCN3
0.0566 µM: IC50 (curve of first compound, second compound 0.00316 µM)
0.0391 µM: IC50 (curve of first compound, second compound 0.01 µM)
0.00378 µM: IC50 [1]
< 0.000316 µM: IC50 [2] | IC50 [3] | IC50 [4]
active: viability, T/C [14] 2.05% | viability, T/C [48] 12.3% | viability, T/C [19] 6.24% | viability, T/C [20] 0.85% | viability, T/C (second compound 1 µM, first compound 0.000316 µM) 5.77% | viability, T/C (second compound 1 µM, first compound 0.001 µM) 4.9% | viability, T/C [49] 6.77% | viability, T/C [50] 5.07% | viability, T/C [25] 3.21% | viability, T/C [26] 1.6%
inactive: viability, T/C (second compound 0.00316 µM, first compound 0.000316 µM) 103% | viability, T/C (second compound 0.00316 µM, first compound 0.001 µM) 82.3% | viability, T/C (second compound 0.00316 µM, first compound 0.00316 µM) 106% | viability, T/C (second compound 0.00316 µM, first compound 0.01 µM) 92.5% | viability, T/C (second compound 0.00316 µM, first compound 0.0316 µM) 77.6% | viability, T/C (second compound 0.00316 µM, first compound 0.1 µM) 23.1% | viability, T/C (second compound 0.01 µM, first compound 0.000316 µM) 103% | viability, T/C (second compound 0.01 µM, first compound 0.001 µM) 78.2% | viability, T/C (second compound 0.01 µM, first compound 0.00316 µM) 98.5% | viability, T/C (second compound 0.01 µM, first compound 0.01 µM) 78.3% | viability, T/C (second compound 0.01 µM, first compound 0.0316 µM) 57.7% | viability, T/C (second compound 0.01 µM, first compound 0.1 µM) 16.7% | viability, T/C (second compound 0.0316 µM, first compound 0.000316 µM) 80.9% | viability, T/C (second compound 0.0316 µM, first compound 0.001 µM) 58% | viability, T/C [43] 52.1% | viability, T/C [44] 39.9% | viability, T/C [7] 29.8% | viability, T/C [8] 7.95% | viability, T/C (second compound 0.1 µM, first compound 0.000316 µM) 46% | viability, T/C (second compound 0.1 µM, first compound 0.001 µM) 36.5% | viability, T/C [45] 31.2% | viability, T/C [46] 23.6% | viability, T/C [13] 15.8% | viability, T/C (second compound 0.316 µM, first compound 0.000316 µM) 14.4% | viability, T/C (second compound 0.316 µM, first compound 0.001 µM) 17.3% | viability, T/C [47] 12.6%
